The text below walks through data of US5179113A, “Treatment of central nervous disorders with imidazole compounds” (E. I. Du Pont de Nemours and Company, priority 1991, dated 1993).

Experiment [1] concerns male Sprague-Dawley rats (renin-induced amnesia). Put plainly: Renin-disrupted passive avoidance retention. Particulars: for effect on renin-induced amnesia (in words): co-administered with renin IVT. Format: in vivo, rat. The method, then:
Experimentally naive male Sprague-Dawley rats […] (Charles River Breeding Laboratories, Kingston, N.Y.), weighing between 175 to 200 gm were used. The animals were housed four per cage (45.0(L)×20.0(H)×26.0(W) cm) with free access to food and water. They were maintained on a 12 h light/dark cycle (lights on 600 h) and at a room temperature of 22°±1° C. with relative humidity of 50±10%. The experimental sessions were conducted in a two-compartment passive avoidance box. One compartment, made of clear plastic with a perforated clear plastic floor, measured 21(L)×24.5(H)×17(W) cm and was illuminated with a 60 watt incandescent light bulb placed 36 cm above the floor. The other compartment, made of black plastic, measured 30.5(L)×20.3(H)×21.5(W) cm with a floor made of 4 mm stainless steel rods spaced 1.2 cm apart. A grid floor shocker (Coulbourn Instruments) was connected to the steel rods and provided scrambled footshock. The two compartments were separated by a solenoid-operated slide door (Lafayette Instrument Co., Lafayette, Ind.). An electronic counter (Coulbourn Instruments), triggered by the opening or closing of the slide door, recorded acquisition and retention latencies (latencies were defined as the time it took an animal to enter the dark compartment). Passive avoidance training began by placing the rat into the clear compartment of the two-compartment passive avoidance box. Following a 10 sec delay, the slide door to the dark compartment was raised. Once the rat moved completely into the dark compartment (all four paws on the shock grid floor) the slide door was lowered, and after a 10 sec delay, a 1.0 mA shock was applied to the grid floor for three sec. A second three sec shock was delivered after an additional 10 sec delay. The rats were immediately removed from the dark compartment and returned to their home cage. A retention test was given 24 h later. It proceeded in the same manner as the training session except that no shock was applied to the grid floor when the rats were provided access to the dark compartment for a maximum of 300 sec. […] All drugs were administered IVT 60 minutes prior to acquisition training in a volume of 5 μl. Doses are expressed as the free base weight of each compound.

In experiment [2] the test system is eight arm radial maze performance in rats. Particulars: 3 mg/kg IP; Usinger et al. 1988; cited from earlier work.
Another experiment concerns AII-1 receptor. Briefly: AII receptor antagonism, subtype AII-1, as stated. Particulars: stated in words, no data.
In experiment [3] the test system is AII-2 receptors in the brain. Briefly: Binding of AII antagonists to brain slices, AII-2 sites. Conditions: majority of binding sites.
Experiment [4] relates to retention of a passive avoidance (PA) response in rats. Particulars: injected into dorsal neostriatum; Morgan and Routtenberg 1977; cited from earlier work.
The test system of experiment [5] is AII receptor subtype-2 (AII-2). Particulars: rat adrenal cortex; cited from earlier work.
Experiment [6] has as its system AII receptor subtype-1 (AII-1). Particulars: rat adrenal cortex; cited from earlier work.
In experiment [7] the test system is AII-1 receptors in the brain. Briefly: Binding of AII antagonists to brain slices, AII-1 sites. Particulars: clusters of AII-1 sites.
Experiment [8] relates to memory of previously learned tasks. Particulars: EP 288,907; cited from earlier work.
Experiment [9] deals with release of ACh in entorhinal cortex from rat brain. Conditions: in vitro; Barnes et al. 1989; cited from earlier work.
Experiment [10] has as its system AII in cerebrospinal fluid (CSF). Conditions: renin into lateral ventricle; AII increased from 40; Koller et al. 1975; cited from earlier work.

Entries after “also recorded” stand apart in the source; their conditions may differ. Structures can show the parent of a compound that is named as a salt.

In the case of `C[C@H](CS)C(=O)N1CCC[C@H]1C(=O)O` [captopril], the “effect on renin-induced amnesia (in words)” value (“effect … (in words)” for short) in experiment [1] is “prevented”.
For `CCOC(=O)C(CCc1ccccc1)NC(C)C(=O)N1CC2(CC3CCC2CC3)CC1C(=O)O` (stereo not drawn) [Hoe 288], in experiment [2], the “effect on muscarinic receptor blockade on performance” value is given as “partially antagonized the effects of muscarinic receptor blockade on performance”.
Turning to `CCCc1nc(C(F)(F)F)c(CO)n1Cc1ccc(-c2ccccc2-c2nn[nH]n2)cc1` [Compound D, sodium salt of 2-n-propyl-5-hydroxymethyl-1-[(2'-(1H-tetrazol-5-yl)biphenyl-4-yl)methyl]-4-trifluoromethylimidazole], in [1], the “effect … (in words)” value was “protected against the amnesia”. For the same molecule, in the experiment with AII-1 receptor, the AII-1 receptor antagonism result is “AII-1 receptor antagonists”.
Regarding `Cc1cc(Cn2cnc3c2CC(C(=O)O)N(C(=O)C(c2ccccc2)c2ccccc2)C3)ccc1N` (stereo not drawn) [EXP655, 1-(4-amino-3-methylphenyl)methyl-5-diphenylacetyl-4,5,6,7-tetrahydro-1H-imidazo[4,5-c]pyridine-6-carboxylic acid], the “effect … (in words)” value in experiment [1] is recorded as “much less effective in preventing the amnesia”. For the same molecule, the “sensitivity of AII-2 binding sites in brain” value in [3] is “EXP655-sensitive”.
For `NC(=O)[C@@H]1CCCN1C(=O)[C@H](Cc1cnc[nH]1)NC(=O)[C@@H]1CCC(=O)N1` [thyrotropin releasing hormone], the “effect on retention of PA response” value in experiment [4] is recorded as “no effect”.
Regarding `O[C@H](CS)[C@H](O)CS` (racemic) [DTT, dithiothreitol], the “sensitivity of AII-2 receptor to inactivation by DTT” value in experiment [5] is reported as “resistant to DTT inactivation”. Besides, in [6], the “sensitivity of AII-1 receptor to inactivation by DTT” value was “particularly sensitive to inactivation”. Further, in experiment [3], the “sensitivity of AII-2 binding sites in brain” value is listed as “DTT-insensitive”. Moreover, the “sensitivity of AII-1 binding sites in brain” value in experiment [7] is recorded as “DTT-sensitive”.
Turning to `CCCc1nc(C(F)(F)F)c(C(=O)O)n1Cc1ccc(-c2ccccc2-c2nn[nH]n2)cc1` [Compound C, sodium salt of 2-n-propyl-1-[(2'-(1H-tetrazol-5-yl)biphenyl-4-yl)methyl]-4-trifluoromethylimidazole-5-carboxylic acid], in experiment [1], the “effect … (in words)” value is recorded as “protected against the amnesia”. The AII-1 receptor antagonism result in the experiment with AII-1 receptor is on record as “AII-1 receptor antagonists”.
As for lysine-8-vasopressin, in experiment [4], the “effect on retention of PA response” value is recorded as “no effect”.
Consider `NCCCC[C@H](OP(=O)(O)CCCCc1ccccc1)C(=O)N1CCC[C@H]1C(=O)O` [SQ 29852], for which the “effect on an anticholinergic effect on performance” value in [8] is “ameliorate, at least in part”.
“AI: AI, compared with AII in ACh release (DRVYIHPFHL; Angiotensin-1; UniProt P01019 25-34, looked up)”: in experiment [9], the “effect on potassium-stimulated release of ACh” value was “not AI”.
Regarding “[1-sarcosine, 8-threonine]angiotensin-II”, the “effect on AII-induced reduction of ACh release” value in experiment [9] was “antagonized”.
Regarding “AII: Angiotensin-II, circulating hormone thought to act as a neuropeptide in the CNS (DRVYIHPF; Angiotensin-2; UniProt P01019 25-32, looked up)”, the “effect on basal ACh levels” value in experiment [9] was “without effects on basal levels”. For the same molecule, the “effect on retention of PA response” value in experiment [4] was “disruption in retention of a PA response”.

B1: renin: Renin (Sigma Chemicals), a stimulator of endogenous AII biosynthesis (protein, UniProt P00797 67-406, looked up)
Renin: LTLGNTTSSVILTNYMDTQYYGEIGIGTPPQTFKVVFDTGSSNVWVPSSKCSRLYTACVYHKLFDASDSSSYKHNGTELTLRYSTGTVSGFLSQDIITVGGITVTQMFGEVTEMPALPFMLAEFDGVVGMGFIEQAIGRVTPIFDNIISQGVLKEDVFSFYYNRDSENSQSLGGQIVLGGSDPQHYEGNFHYINLIKTGVWQIQMKGVSVGSSTLLCEDGCLALVDTGASYISGSTSSIEKLMEALGAKKRLFDYVVKCNEGPTLPDISFHLGGKEYTLTSADYVFQESYSSKKLCTLAIHAMDIPPPTGPTWALGATFIRKFYTEFDRRNNRIGFALAR
In the case of B1, the “AII in CSF after renin” value in experiment [10] was “about 5000 fmol per mL”. For the same molecule, in experiment [1] (IVT, passive avoidance), the “memory deficit / amnesia produced by renin (in words)” value is listed as “produces a reliable memory deficit in rats; also recorded: dose-related amnesia in a PA task”.
